Our source for the inhibition values is US8022225B2, “Triazole derivative” (Taisho Pharmaceutical Co., Ltd, priority 2004, dated 2011).

SMILES strings stand for the structures.

In experiment [1] the target is T1, human Edg-1(S1P1) (Homo sapiens, UniProt P21453).
T1 construct: expressed in transfected cells; host or cells: HEK-293
As to the kind of experiment: Membrane system binding test: inhibition of [33P]-S1P binding to the membrane fraction of Edg-1(S1P1) gene transferred HEK-293 cells. As to conditions: 10 μM compound; [33P]-S1P 0.1 nM; membrane fraction of Edg-1(S1P1) gene transferred HEK-293 cells; read-out: Membrane system binding test % inhibition (10 μM). How it is done: The membrane fraction was obtained by treating the cells with a solubilizing buffer (1 mM Tris/HCl, pH 7.2) for 10 minutes on ice, centrifuging the system (1000×g, 5 min) to remove insoluble fractions, and then centrifuging the system (40000×g, 30 min, 4° C.). The resulting membrane fraction was dissolved in a binding buffer (20 mM Tris-HCl, pH 7.4, 100 mM NaCl, 15 mM NaF, 2 mM deoxypyridoxine, 4 mg/mL fatty acid-free BSA), and then [^33P]-S1P (produced by ARC, end concentration 0.1 nM) and a DMSO solution of the test compound (end concentration of the compound: 10^−5 M, end concentration of DMSO: 0.1%) were added, followed by stirring the mixture and subsequently treating it for 1 hour at 30° C. Using a harvester, the membrane fraction was harvested onto unifilter-96GF/C filter (produced by Perkin-Elmer). Then, the filter with the membrane fraction was washed 4 times with the binding buffer, and the filter was dried. To the filter, 25 μL Microscint 0 (produced by Perkin-Elmer) was added, and the assay system was measured for radioactivity by means of Top Count NXT (Packard). Based on the radioactivity, the amount (A) of binding of [^33P]-S1P to the membrane fraction upon addition of the compound was calculated.
The same procedure was performed in the absence of the test compound, and the amount (B) of binding of [^33P]-S1P was calculated. Moreover, the same procedure was performed in the absence of the test compound with the use of HEK-293 cells, to which the Edg-1(S1P1) gene had not been transferred, and the background amount (C) of binding of [^33P]-S1P was calculated.
The Edg-1(S1P1) binding inhibition rate of the compound, calculated from the following equation, is shown in […]

The target in experiment [2] is T1, human Edg-1(S1P1). As to the kind of experiment: Cell system binding test: inhibition of [3H]-S1P binding to Edg-1(S1P1) gene transferred HEK-293 cells. As to conditions: 10 μM compound, [3H]-S1P 10 nM, read-out: Cell system binding test % inhibition (10 μM).

T1 sequence (P21453 whole entry): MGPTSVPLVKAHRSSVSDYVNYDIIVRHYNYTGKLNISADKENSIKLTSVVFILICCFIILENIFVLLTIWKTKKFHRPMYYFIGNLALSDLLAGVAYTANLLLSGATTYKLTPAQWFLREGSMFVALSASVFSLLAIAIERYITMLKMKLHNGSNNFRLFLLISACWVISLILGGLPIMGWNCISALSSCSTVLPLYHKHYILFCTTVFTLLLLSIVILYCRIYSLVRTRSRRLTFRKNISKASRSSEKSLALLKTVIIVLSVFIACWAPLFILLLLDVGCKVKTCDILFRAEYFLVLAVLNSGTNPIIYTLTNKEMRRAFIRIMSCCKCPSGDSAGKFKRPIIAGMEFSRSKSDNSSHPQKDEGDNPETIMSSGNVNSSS

As usually defined, the inhibition is the relative decrease from the control value, in per cent. Turning to `CCn1c(SCc2cccc(Cl)c2)nnc1[C@@H](C)NS(=O)(=O)c1ccc(Cl)cc1` [Compound 44], the inhibition at 10 µM at human Edg-1(S1P1) [1] was 99.6%; on human Edg-1(S1P1) [2], 93%.

With `CCn1c(SCc2ccc(Cl)cc2)nnc1[C@@H](C)NS(=O)(=O)c1ccc(Cl)cc1` [Compound 45], the inhibition at 10 µM on human Edg-1(S1P1) [1] came out at 91.3%; at human Edg-1(S1P1) [2], 91.7%.

On to `CCn1c(SCc2ccc(C(F)(F)F)cc2)nnc1C(C)NS(=O)(=O)c1ccc(Cl)cc1` (stereo not shown) [Compound 46], for which the results for the inhibition at 10 µM on human Edg-1(S1P1) [1] and on human Edg-1(S1P1) [2] were 99.5% and 90.4%, respectively.

For the compound `CCn1c(SCC(=O)c2ccccc2)nnc1[C@@H](C)NS(=O)(=O)c1ccc(Cl)cc1` [Compound 47], the figures for the inhibition at 10 µM at human Edg-1(S1P1) [1] and at human Edg-1(S1P1) [2] were 99.2% and 92.5%, respectively.

In the case of `CCn1c(SCc2cccc3ccccc23)nnc1[C@@H](C)NS(=O)(=O)c1ccc(Cl)cc1` [Compound 48], the results for the inhibition at 10 µM on human Edg-1(S1P1) [1] and at human Edg-1(S1P1) [2] were 101% and 93%, respectively.

With `CCn1c(SC2CCOC2)nnc1[C@@H](C)NS(=O)(=O)c1ccc(Cl)cc1` (stereo partly shown) [Compound 49], the inhibition at 10 µM on human Edg-1(S1P1) [1] is 93.9%; at human Edg-1(S1P1) [2], 94.8%.

Turning to `CCn1c(SC/C=C\COCc2ccccc2)nnc1[C@@H](C)NS(=O)(=O)c1ccc(Cl)cc1` [Compound 50], the inhibition at 10 µM on human Edg-1(S1P1) [1] was 96.2%; on human Edg-1(S1P1) [2], 95.3%.

Turning to `CCn1c(SC2CCc3ccccc32)nnc1[C@@H](C)NS(=O)(=O)c1ccc(Cl)cc1` (stereo partly shown) [Compound 51], the inhibition at 10 µM is 93% on human Edg-1(S1P1) [1] and 91.2% on human Edg-1(S1P1) [2].

For the compound `CCn1c(SC(C(=O)OC)c2ccccc2)nnc1[C@@H](C)NS(=O)(=O)c1ccc(Cl)cc1` (stereo partly shown) [Compound 52], the inhibition at 10 µM at human Edg-1(S1P1) [1] is 89.1%; on human Edg-1(S1P1) [2], 93.6%.

With `CCSc1nnc([C@@H](C)NS(=O)(=O)c2ccc(Cl)cc2)n1CC` [Compound 53], the inhibition at 10 µM at human Edg-1(S1P1) [1] is 89.3%; at human Edg-1(S1P1) [2] it was 90.8%.

Turning to `CCn1c(SC(C)C)nnc1[C@@H](C)NS(=O)(=O)c1ccc(Cl)cc1` [Compound 54], the inhibition at 10 µM at human Edg-1(S1P1) [1] was determined as 105%; on human Edg-1(S1P1) [2], 88.7%.

As to `CCn1c(SC2CCC2)nnc1[C@@H](C)NS(=O)(=O)c1ccc(Cl)cc1` [Compound 55], the inhibition at 10 µM amounted to 104% at human Edg-1(S1P1) [1] and 94.3% on human Edg-1(S1P1) [2].

For the compound `CCn1c(SCc2ccc(C#N)cc2)nnc1[C@@H](C)NS(=O)(=O)c1ccc(Cl)cc1` [Compound 56], the inhibition at 10 µM at human Edg-1(S1P1) [1] worked out at 91%; at human Edg-1(S1P1) [2], 87.1%.

Consider `CCn1c(SCC(F)F)nnc1[C@@H](C)NS(=O)(=O)c1ccc(Cl)cc1` [Compound 57], for which the inhibition at 10 µM on human Edg-1(S1P1) [1] is 100%; at human Edg-1(S1P1) [2], 92.6%.

With `CCn1c(SCc2ccc(C(=O)OC)cc2)nnc1[C@@H](C)NS(=O)(=O)c1ccc(Cl)cc1` [Compound 58], the results for the inhibition at 10 µM at human Edg-1(S1P1) [1] and at human Edg-1(S1P1) [2] were 98.1% and 91.9%, respectively.

For `CCn1c(SCc2ccc(C)cc2)nnc1[C@@H](C)NS(=O)(=O)c1ccc(Cl)cc1` [Compound 59], the inhibition at 10 µM on human Edg-1(S1P1) [1] was found to be 96.9%; on human Edg-1(S1P1) [2] it was 93.2%.

As for `CCn1c(SCc2ccc(SC)cc2)nnc1[C@@H](C)NS(=O)(=O)c1ccc(Cl)cc1` [Compound 60], the inhibition at 10 µM on human Edg-1(S1P1) [1] is 97.2%; at human Edg-1(S1P1) [2], 90.3%.

On to `CCn1c(SCCc2ccccc2)nnc1[C@@H](C)NS(=O)(=O)c1ccc(Cl)cc1` [Compound 61], for which the inhibition at 10 µM was 98.9% on human Edg-1(S1P1) [1] and 95% at human Edg-1(S1P1) [2].

As to `CCn1c(SCCc2ccccn2)nnc1[C@@H](C)NS(=O)(=O)c1ccc(Cl)cc1` [Compound 62], the figures for the inhibition at 10 µM on human Edg-1(S1P1) [1] and on human Edg-1(S1P1) [2] were 90.6% and 92.9%, respectively.

For `CCn1c(SCc2ccccn2)nnc1[C@@H](C)NS(=O)(=O)c1ccc(Cl)cc1` [Compound 63], the inhibition at 10 µM on human Edg-1(S1P1) [1] worked out at 99.7%; on human Edg-1(S1P1) [2], 93.7%.

As for `CCn1c(SCc2ccncc2)nnc1[C@@H](C)NS(=O)(=O)c1ccc(Cl)cc1` [Compound 64], the inhibition at 10 µM amounted to 86.5% on human Edg-1(S1P1) [1] and 91.3% at human Edg-1(S1P1) [2].

`CCn1c(SCC2CCCN(C)C2)nnc1[C@@H](C)NS(=O)(=O)c1ccc(Cl)cc1` (stereo partly shown) [Compound 65]: the inhibition at 10 µM on human Edg-1(S1P1) [1] came out at 83.1%; at human Edg-1(S1P1) [2] it was 83.3%.

In the case of `CCn1c(SCCCCCCN(C)C)nnc1[C@@H](C)NS(=O)(=O)c1ccc(Cl)cc1` [Compound 66], the inhibition at 10 µM on human Edg-1(S1P1) [1] was determined as 90.6%; on human Edg-1(S1P1) [2], 84%.

Take `CCn1c(SCCCN(C)C)nnc1[C@@H](C)NS(=O)(=O)c1ccc(Cl)cc1` [Compound 67]: the inhibition at 10 µM at human Edg-1(S1P1) [1] was 42.2%; at human Edg-1(S1P1) [2], 73.8%.

On to `CCn1c(SCCCc2ccncc2)nnc1[C@@H](C)NS(=O)(=O)c1ccc(Cl)cc1` [Compound 68], for which the inhibition at 10 µM on human Edg-1(S1P1) [1] came to 97.9%; on human Edg-1(S1P1) [2] it was 93%.

As to `CCn1c(SCCc2ccncc2)nnc1[C@@H](C)NS(=O)(=O)c1ccc(Cl)cc1` [Compound 69], the inhibition at 10 µM at human Edg-1(S1P1) [1] turned out to be 92.7%; on human Edg-1(S1P1) [2] it was 89.5%.

For `CCn1c(SC2CCN(C)CC2)nnc1[C@@H](C)NS(=O)(=O)c1ccc(Cl)cc1` [Compound 70], the figures for the inhibition at 10 µM on human Edg-1(S1P1) [1] and at human Edg-1(S1P1) [2] were 98% and 88.4%, respectively.

In the case of `CCn1c(SCc2cccc(N(C)C)c2)nnc1[C@@H](C)NS(=O)(=O)c1ccc(Cl)cc1` [Compound 71], the inhibition at 10 µM came out at 104% at human Edg-1(S1P1) [1] and 89.7% at human Edg-1(S1P1) [2].

On to `CCn1c(SCC2CCN(Cc3ccccc3)CC2)nnc1[C@@H](C)NS(=O)(=O)c1ccc(Cl)cc1` [Compound 72], for which the inhibition at 10 µM at human Edg-1(S1P1) [1] is 95.8%; on human Edg-1(S1P1) [2], 89.8%.

With `CCn1c(SCCN2CCNC2=O)nnc1[C@@H](C)NS(=O)(=O)c1ccc(Cl)cc1` [Compound 73], the values for the inhibition at 10 µM on human Edg-1(S1P1) [1] and at human Edg-1(S1P1) [2] were 98.4% and 93.9%, respectively.

As to `CCn1c(SCCNC(=O)c2ccncc2)nnc1[C@@H](C)NS(=O)(=O)c1ccc(Cl)cc1` [Compound 74], the inhibition at 10 µM at human Edg-1(S1P1) [1] amounted to 109%; at human Edg-1(S1P1) [2] it was 93.6%.

`CCN(CCSc1nnc([C@@H](C)NS(=O)(=O)c2ccc(Cl)cc2)n1CC)c1ccccc1` [Compound 75]: the inhibition at 10 µM on human Edg-1(S1P1) [1] is 99.4%; at human Edg-1(S1P1) [2], 92.7%.

With `CCn1c(SCCC2CCN(C)CC2)nnc1[C@@H](C)NS(=O)(=O)c1ccc(Cl)cc1` [Compound 76], the inhibition at 10 µM on human Edg-1(S1P1) [1] is 101%; on human Edg-1(S1P1) [2], 97.3%.

Consider `CCn1c(SCCc2ccc(N(C)C)cc2)nnc1[C@@H](C)NS(=O)(=O)c1ccc(Cl)cc1` [Compound 77], for which the values for the inhibition at 10 µM on human Edg-1(S1P1) [1] and on human Edg-1(S1P1) [2] were 96.4% and 89.4%, respectively.

On to `CCn1c(SCCN2CCCC2=O)nnc1[C@@H](C)NS(=O)(=O)c1ccc(Cl)cc1` [Compound 78], for which the figures for the inhibition at 10 µM at human Edg-1(S1P1) [1] and on human Edg-1(S1P1) [2] were 96.5% and 83%, respectively.

With `CCn1c(SCCCN2CCCC2=O)nnc1[C@@H](C)NS(=O)(=O)c1ccc(Cl)cc1` [Compound 79], the values for the inhibition at 10 µM at human Edg-1(S1P1) [1] and on human Edg-1(S1P1) [2] were 94.9% and 84.7%, respectively.

As for `CCn1c(SCCS(=O)(=O)c2ccccc2)nnc1[C@@H](C)NS(=O)(=O)c1ccc(Cl)cc1` [Compound 80], the inhibition at 10 µM on human Edg-1(S1P1) [1] was found to be 87.5%; at human Edg-1(S1P1) [2], 86.2%.

Regarding `CCn1c(SCc2ccc([N+](=O)[O-])cc2)nnc1[C@@H](C)NS(=O)(=O)c1ccc(Cl)cc1` [Compound 81], the figures for the inhibition at 10 µM at human Edg-1(S1P1) [1] and on human Edg-1(S1P1) [2] were 110% and 87.6%, respectively.
